Activity calls are given as the source filed them.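 How the source made its calls: active means compounds giving half or more protection of infected cells from virus-caused growth loss, again on retest; inactive means the rest.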
Test system: CEM cells HIV-1 protection, formazan growth assay
Assay: NCI AIDS Antiviral Assay
Settings: for IC50: measured here: growth of uninfected CEM cells
How it was run: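 Human CEM cells, uninfected and HIV-1-infected, received five drug concentrations, and growth was read by soluble formazan assay. Compounds giving at least 50% protection were retested; reproducible 100% protection defined confirmed active.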

SMILES	EC50	IC50	outcome
O=c1[nH]c2cc3[nH]c4ncccc4c(=O)c3cc2[nH]1	148 µM	> 200 µM	
CN1C(=O)[C@@H]2[C@@H]3c4ccccc4N[C@@H]3c3[nH]c4ccccc4c3[C@@H]2C1=O	> 200 µM	81.3 µM	
COC1CC(C)([N+](=O)[O-])C(O)C(C)O1 (stereo unspecified)	> 200 µM	> 200 µM	
CCN(/C=C1/C(=O)C(c2ccccc2)N(c2ccccc2)C1=O)CC (stereo unspecified)	> 200 µM	> 200 µM	
O=C1NCCCC12CCCNC2=O	> 20.9 µM	> 20.9 µM	
O=C(CCc1nnc2s/c(=C\c3ccccc3[N+](=O)[O-])c(=O)n12)Nc1cc(Cl)c(Cl)cc1Cl	> 2 µM	> 2 µM	
CC(=O)OC1C(OCc2cc(=O)oc3c4c(c5c(c23)OC(C)(C)CC5)O[C@@H](C)[C@H](C)[C@@H]4O)OC(CO)C(O)C1O (stereo partly specified)	> 200 µM	43.7 µM	
COc1cc2ccc3c4cc(OC)c(OCc5ccccc5)cc4cnc3c2cc1OC			inactive
CCOC(=O)[C@@]12C[C@](/C=C/OC)(O[Si](C)(C)C)[C@@]13c1cc(OC)c(OC)cc1CCN3C(=O)C2=O	> 200 µM	> 200 µM	
COC(=O)C(NC(=O)c1ccccc1)C(c1c(O)cc(O)cc1O)P(=O)(OC)OC (stereo unspecified)	> 16.2 µM	> 16.2 µM	
CCOC(=O)c1sc2c(c1OC(=O)c1ccc(Cl)cc1Cl)c(=O)n(-c1ccccc1)c(=S)n2-c1ccccc1	> 200 µM	0.0871 µM	
CC(C)(C)c1nc2c(o1)C(=Nc1ccccc1)c1ccccc1C2=O			inactive
CC1S(=O)C(C)S(=O)C(C)S1=O (stereo unspecified)			inactive
O=C1CCSSCCC(=O)NCCCN1	> 40.7 µM	> 40.7 µM	
O=c1oc2ccccc2nc1/C=C(\O)c1ccc(Cl)cc1	> 200 µM	64.6 µM	
[N-]=[N+]=NC1C[C@H](n2cc(/C=C/Br)c(=O)[nH]c2=O)C[C@@H]1CO (stereo partly specified)	> 363 µM	355 µM	
CCC12CCC[C@@]13C=C[C@H](O3)C(C)(C)C2=O (stereo partly specified)			inactive
C[N+](C)(C)C1CC([N+](C)(C)C)C2c3ccccc3C21 (stereo unspecified)			inactive
O=C(O)c1ccc2c(O)c(O)ccc2c1	> 77.6 µM	6.03 µM	
CCOC(=O)C1(C)CCC(C(=O)OC)C1=O (stereo unspecified)	> 794 µM	52.5 µM	
CCN1C(=O)CS/C1=N\NC(=O)CSc1nc2ccccc2c(=O)n1CC	> 200 µM	151 µM	
CCOC(=O)C(=Cc1ccccc1[N+](=O)[O-])C(=O)OCC	> 324 µM	5.89 µM	

SMILES	EC50	IC50	outcome
CC(C)(C)OC(=O)C1C(=O)C(C(=O)OC(C)(C)C)C2(C)C(C(=O)OC(C)(C)C)C(=O)C(C(=O)OC(C)(C)C)C12C (stereo unspecified)	> 31.6 µM	11.2 µM	
CC(Oc1ccc(OCC2CCCCC2)cc1)C(N)=O (stereo unspecified)	> 36.3 µM	15.1 µM	
CC(C)(C)OC(=O)N(CCCN)CCCCN	> 200 µM		
COC(=O)c1cc(Cl)ccc1NC(=O)C1CCCCC1			inactive
CC(=O)c1cccc(C(C)=O)c1N=Cc1ccc(O)cc1			inactive
COc1ccc(OC)c(NCC(=O)Nn2cnc3ccc(S(=O)(=O)Nc4cc(OC)ccc4OC)cc3c2=O)c1	> 200 µM	33.9 µM	
CCCC(OCC)(OCC)OCC	> 1320 µM	> 1320 µM	
CN(CN(C)/N=C/c1ccc(Cl)cc1)/N=C/c1ccc(Cl)cc1			inactive
CC(=O)/C(=C/c1ccc(Br)cc1)C(=O)c1ccccc1			inactive
CCN(CC)/[N+]([O-])=N/OS(=O)(=O)N(C)C	> 200 µM	> 200 µM	
O=c1cc(O)c2ccccc2[nH]1	> 200 µM	> 200 µM	
CSc1cc(Br)ccc1-n1c(C(=O)c2ccccc2)c(SC)n(-c2ccccc2)c1=O	> 200 µM	14.5 µM	
Nc1ccccc1SC(/C=C/NNC1=NC(c2ccccc2)C(c2ccccc2)=NN1)c1ccccc1 (stereo unspecified)	> 100 µM	4.27 µM	
COc1cc(N)c2nc(C(O)C(O)C(O)CO)cnc2c1 (stereo unspecified)	> 851 µM	617 µM	
CCOC(=O)C(=O)Nc1c(C)cccc1CC	> 776 µM	> 776 µM	
O=S1(=O)CC2(N3CCCCC3)CCCCC21 (stereo unspecified)	> 891 µM	219 µM	
CC1(C)C=C(N2CCN(C3=CC(C)(C)NC(C)(C)C3)CC2)CC(C)(C)N1	> 182 µM	> 182 µM	
CCCCn1c(C)c2c(c1C)C(=O)N(CCN1CCN(c3ccccc3Cl)CC1)C2=O	> 200 µM	> 200 µM	
O=c1nc(NC(c2ccccc2)(c2ccccc2)c2ccccc2)ccn1CCNCCn1ccc(NC(c2ccccc2)(c2ccccc2)c2ccccc2)nc1=O	> 9.33 µM	> 9.33 µM	
CN(C)CCNC(c1ccccc1)C(O)c1ccccc1 (stereo unspecified)			inactive
O=c1[nH]c2nccn2c(Cl)c1Br	> 200 µM	33.9 µM	
CC1=NN(C(=O)c2ccc(Cl)cc2)C(=O)/C1=C/c1ccco1	> 22.9 µM	> 22.9 µM	

SMILES	EC50	IC50	outcome
COC(=O)CC(C(C(=O)OC)C(=O)OC)N1C(=O)OCC1c1ccccc1 (stereo unspecified)	> 135 µM	> 135 µM	
CNC(=O)N(CCC#N)CCCN(C(=O)NC)c1ccccc1	> 200 µM	> 200 µM	
N#Cc1ccc(NC(=O)C(CC(=O)OCc2ccccc2)NC(=O)OCc2ccccc2)cc1 (stereo unspecified)	> 200 µM	> 200 µM	
CCC1(C(=O)OC)CCc2c(OC)ccc(OC)c2C1=O (stereo unspecified)			inactive
N#CC(C#N)=c1cc/c(=c2/ccc(=C(C#N)C#N)s2)s1	> 24.5 µM	> 24.5 µM	
NC(=S)N/N=C1/CN(c2ccc(Cl)c(Cl)c2)CC(=O)C1c1nc2ccccc2s1 (stereo unspecified)			inactive
CC1(c2ccc(Cl)cc2)OCC(CCl)O1 (stereo unspecified)	> 200 µM	> 200 µM	
C/C(=N\Nc1ccc([N+](=O)[O-])cc1[N+](=O)[O-])c1ccc2ccccc2n1	182 µM	> 200 µM	
COC(=O)C1=C(C)N(NC(=O)Nc2ccccc2)C2(N)N(NC(=O)Nc3ccccc3)C(C)=C(C(=O)OC)C12C(=O)OC (stereo unspecified)	> 31.6 µM	> 31.6 µM	
O=c1ccc2cc3ccoc3c(OCCCCCCCCCCCCOc3c4occc4cc4ccc(=O)oc34)c2o1	> 38.9 µM	> 38.9 µM	
CCC(C#N)NC(=O)NC(C#N)CC (stereo unspecified)	> 200 µM	107 µM	
S=C(Nc1cccc(-c2ccccc2)c1)Nc1ccc(Br)cn1	> 200 µM	1.17 µM	
O=S(=O)(F)c1cccc(C[P+](c2ccccc2)(c2ccccc2)c2ccccc2)c1	> 200 µM	51.3 µM	
CC(C)N1CC(=O)N2CSCC2C1=O (stereo unspecified)	> 200 µM	> 200 µM	
CC1(O)C=CC2CCC1C2O (stereo unspecified)	> 1620 µM	> 1620 µM	
CCOC(=O)c1cn2c(n1)sc1cc(OC)ccc12	> 20 µM	1.7 µM	
OC(C/C(=N\N1CCCCC1)c1cccs1)(C(F)(F)F)C(F)(F)F	> 200 µM	145 µM	
CCC[CH2][Sn]1([CH2]CCC)[O]C(=O)c2cccnc2[O]1	> 97.7 µM	0.0977 µM	
COC(=O)/C=C1\C[C@H]2O[C@@](O)(C1)[C@H](C)C(=O)O[C@H]1C[C@@H](C=C(C)C)O[C@@H](CC3(O)O[C@H](CC[C@H]2O)[C@@H](C)[C@]2(O)CC[C@@H](C)C(=O)C32)[C@H]1C (stereo partly specified)			inactive
COc1ccccc1/C=C1\Sc2scc(-c3ccc(O)c(O)c3)[n+]2C1=O	> 200 µM	3.89 µM	
Cc1nc2ccccc2n1COC(Cn1ccnc1)c1ccc(Cl)cc1Cl (stereo unspecified)	> 200 µM	135 µM	

— PubChem BioAssay AID179 (DTP/NCI, 2004)
